3 molecules from publication PMC10101011, “A Retro-Aldol Reaction Prompted the Evolvability of a Phosphotransferase System for the Utilization of a Rare Sugar” (Microbiology Spectrum, 2023) can be followed below.

What all share (format): biochemical
For one assay, the target named is T1, EC_KbaY (Escherichia coli, UniProt P0AB74).
T1 construct: gene kbaY; catalytic subunit alone without KbaZ, His-tagged, pET-28a(+), 31 kDa
In words: coupled NADH oxidation assay (TPI, G3PDH). As to conditions: 1 mM substrate, 10 mM MgCl2, pH 8.0, 25 °C.

The target of the next assay is T2, EC_GatY (Escherichia coli, UniProt P0C8J6).
T2 construct: gene gatY; catalytic subunit alone without GatZ, His-tagged, pET-28a(+), 30 kDa
T2 sequence (P0C8J6 whole entry): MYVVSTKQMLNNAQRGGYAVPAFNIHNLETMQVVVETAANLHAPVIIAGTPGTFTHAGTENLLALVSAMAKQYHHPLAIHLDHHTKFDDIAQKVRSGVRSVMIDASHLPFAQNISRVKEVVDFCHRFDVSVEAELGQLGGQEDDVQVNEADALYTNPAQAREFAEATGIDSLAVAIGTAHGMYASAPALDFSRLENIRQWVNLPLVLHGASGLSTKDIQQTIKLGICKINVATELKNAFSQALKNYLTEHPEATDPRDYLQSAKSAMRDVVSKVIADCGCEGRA
In words: coupled NADH oxidation assay (TPI, G3PDH). As to conditions: 1 mM substrate, 10 mM MgCl2, pH 8.0, 25 °C.

Assay [1] has as its target T3, FruK (EC_FruK) (Escherichia coli, UniProt P0AEW9, A39S).
T3 construct: His-tagged, pET-28a(+), expressed in E. coli BL21(DE3)
Description: coupled NADH oxidation assay (GatY, TPI, G3PDH). The settings on record: 2 mM ATP, 2 mM substrate, 10 mM MgCl2, pH 8.0, 25 °C.

Assay [2] deals with T4, FruK (EC_FruK) (Escherichia coli, UniProt P0AEW9).
T4 construct: His-tagged, pET-28a(+), expressed in E. coli BL21(DE3)
T4 sequence (P0AEW9 whole entry): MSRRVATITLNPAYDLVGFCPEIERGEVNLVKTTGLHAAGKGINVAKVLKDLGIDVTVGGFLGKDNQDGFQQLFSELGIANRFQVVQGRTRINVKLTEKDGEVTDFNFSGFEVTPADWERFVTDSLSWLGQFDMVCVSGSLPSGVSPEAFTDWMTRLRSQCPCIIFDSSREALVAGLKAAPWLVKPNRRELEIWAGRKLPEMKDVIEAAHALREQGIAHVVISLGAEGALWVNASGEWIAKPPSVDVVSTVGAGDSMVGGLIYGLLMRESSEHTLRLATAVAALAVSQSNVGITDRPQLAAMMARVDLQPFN
Description: coupled NADH oxidation assay (FbaA, TPI, G3PDH). As to conditions: 2 mM ATP, 2 mM substrate, 10 mM MgCl2, pH 8.0, 25 °C.

T1 sequence (P0AB74 whole entry): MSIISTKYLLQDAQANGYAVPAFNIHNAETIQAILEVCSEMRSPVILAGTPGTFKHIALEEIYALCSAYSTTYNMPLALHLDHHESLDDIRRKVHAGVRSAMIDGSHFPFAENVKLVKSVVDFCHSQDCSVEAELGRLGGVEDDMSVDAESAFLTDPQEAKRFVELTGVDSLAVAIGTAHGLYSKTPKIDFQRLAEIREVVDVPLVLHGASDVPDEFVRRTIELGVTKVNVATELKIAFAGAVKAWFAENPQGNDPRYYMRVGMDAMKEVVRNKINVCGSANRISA
T3 sequence (P0AEW9 whole entry A39S): as the sequence (P0AEW9 whole entry) above, with A39S counted along it

Regarding `O=P(O)(O)OC[C@H]1OC(O)(COP(=O)(O)O)[C@@H](O)[C@H]1O` (stereo partly drawn) [D-Tag-1,6-BP], the “coupled NADH oxidation assay (TPI, G3PDH)” value at EC_KbaY was “EC_GatY and EC_KbaY showed much lower D-Tag-1,6-BP cleavage activity than BL_GatY”; on EC_GatY, “EC_GatY and EC_KbaY showed much lower D-Tag-1,6-BP cleavage activity than BL_GatY”.

Turning to `O=P(O)(O)OC[C@H]1OC(O)(CO)[C@@H](O)[C@H]1O` (stereo partly drawn) [D-Tag-6P], the “coupled NADH oxidation assay (GatY, TPI, G3PDH)” value at FruK (EC_FruK) [1] was “FruK_A39S showed relatively higher activities for D-Tag-6P than FruK_WT”. On to `O=P(O)(O)OCC1(O)O[C@H](CO)[C@@H](O)[C@@H]1O` (stereo partly drawn) [D-Fru-1P], for which, at FruK (EC_FruK) [2], the “coupled NADH oxidation assay (FbaA, TPI, G3PDH)” value is recorded as “for primary D-Fru-1P were much lower than that of FruK_WT”.
